From US20070248996A1, “Modulators of beta-amyloid peptide aggregation comprising D-amino acids” (Paraecis Pharmaceuticals, Inc., priority 1995, published 2007)
Like-named read-outs stand apart in the source and are kept apart here. Square brackets hold non-standard residues; d marks the D form. Peptide text beside a SMILES is read from it. * marks the point of attachment. Acetyl(4-pyridyl) = O=C(Cc1ccncc1)*; Benzoyl(4-OH) = O=C(c1ccc(O)cc1)*; d3Pal = N[C@H](Cc1cccnc1)C(=O)O; Isonicotinoyl = O=C(c1ccncc1)*; X1 = O=C(c1cc2cc(O)ccc2cc1O)*

Biological target: Aβ1-40 (Homo sapiens, UniProt P05067)
Assay type: biochemical
Parameters: ΔLag: unit not given here
Details: for ΔLag: Table XI
Text: The nucleation assay is employed to determine the ability of test compounds to alter (e.g. inhibit) the early events in formation of β-AP fibers from monomeric β-AP. Characteristic of a nucleated polymerization mechanism, a lag time is observed prior to nucleation, after which the peptide rapidly forms fibers as reflected in a linear rise in turbidity. The time delay before polymerization of β-AP monomer can be quantified as well as the extent of formation of insoluble fiber by light scattering (turbidity). Polymerization reaches equilibrium when the maximum turbidity reaches a plateau The turbidity of a solution of natural β-AP in the absence or presence of various concentrations of a β-amyloid modulator compound is determined by measuring the apparent absorbance of the solution at 405 nm (A405 nm) over time. The threshold of sensitivity for the measurement of turbidity is in the range of 15-20 μM β-AP. […] This assay can be performed using stirring or shaking to accelerate polymerization, thereby increasing the speed of the assay. Moreover the assay can be adapted to a 96-well plate format to screen multiple compounds.
HFIP-solubilized peptide is sonicated in a waterbath sonicator for 5 min at highest setting, then evaporated to dryness under a stream of argon. The peptide film is resuspended in anhydrous dimethylsulfoxide (DMSO) at a concentration of 6.9 mg/ml (25× concentration), sonicated for 5 min as before, then filtered through a 0.2 micron nylon syringe filter (VWR cat. No.28196-050). Test compounds are dissolved in DMSO at a 100× concentration. […] Ten microliters of the mixture is then added to the bottom of a well of a Corning Costar ultra low binding 96-well plate (Coming Costar, Cambridge Mass.; cat. No. 2500). Ninety microliters of water is added to the well, the plate is shaken on a rotary shaken at a constant speed at room temperature for 30 seconds, an additional 100 μl of 2× PTL buffer (20 mM NaH2PO4, 300 mM NaCl, pH 7.4) is added to the well, the plate is reshaken for 30 seconds and a baseline (t=0) turbidity reading is taken by measuring the apparent absorbance at 405 nm using a Bio-Rad Model 450 Microplate Reader. The plate is then returned to the shaker and shaken continuously for 5 hours. Turbidity readings are taken at 15 minute intervals.
β-amyloid aggregation in the absence of any modulators results in enhanced turbidity of the natural β-AP solution (i.e., an increase in the apparent absorbance at 405 nm over time). […]

[1] = Table V, hydroxylated and oxygenated modifying groups, 5 μM test compound
[2] = Table IV, hydrophobic modifying groups, 5 μM test compound

Chain of Aβ1-40 (P05067 672-711): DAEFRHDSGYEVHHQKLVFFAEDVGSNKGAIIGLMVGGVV

## Ac-d(LFFFL)-nh2 [PPI-644]
Table IX, 5 μM test compound
  ΔLag 5 μM: 2.1

## H-d(LVFFL)-nh2 [PPI-655]
Table X, 5 μM test compound
  ΔLag 5 μM: >6

## cholyl-D-Leu-D-Val-D-Phe-D-Phe-D-Ala-NH2 [PPI-457]
Table I, 5 μM Aβ1-40, 5 μM test compound, ratio of lag time to control
  ΔLag 5 μM: >10
Table IX, 5 μM test compound
  ΔLag 5 μM: >6

## CC(C)C[C@@H](NC(=O)c1ccc(O)cc1)C(=O)N[C@@H](C(=O)N[C@H](Cc1ccccc1)C(=O)N[C@H](Cc1ccc(O)cc1)C(=O)N[C@H](C)C(N)=O)C(C)C [PPI-772, 4-Hydroxybenzoyl-d(LVFYA)-nh2] ({Benzoyl(4-OH)}-[dL][dV][dF][dY][dA]-NH2)
5 μM test compound
  ΔLag: 2

## CC(C)C[C@@H](NC(=O)[C@H](NC(=O)[C@@H](Cc1ccccc1)NC(=O)[C@@H](Cc1ccccc1)NC(=O)[C@@H](Cc1cccnc1)NC(=O)c1cc2cc(O)ccc2cc1O)C(C)C)C(N)=O [PPI-664, 3,7-Dihidroxy-2-naphthol-d(Pal-FFVL)-nh2] (X1-[d3Pal][dF][dF][dV][dL]-NH2)
0.5 μM test compound
  ΔLag: 0
5 μM test compound
  ΔLag: 2

## Glycolyl-d(LVFFA)-nh2 [PPI-535]
Table IX, 5 μM test compound
  ΔLag 5 μM: 1.3
[1]
  ΔLag 5 μM: 1.4

## trans-Cinnamoyl-d(LVFF)-nh2 [PPI-490]
[2]
  ΔLag 5 μM: 1.0

## 3-Hydroxyphenylacetyl-d(LVFF)-nh2 [PPI-483]
Table IX, 5 μM test compound
  ΔLag 5 μM: 2.9
[1]
  ΔLag 5 μM: 2.2

## Ac-d(LVFFA)-nh2 [PPI-501]
Table IX, 5 μM test compound
  ΔLag 5 μM: 1.4

## D-3-Phenyllactyl-d(FFFVL)-nh2 [PPI-635]
Table IX, 5 μM test compound
  ΔLag 5 μM: 2.5

## 3,7-Dihydroxy-2-naphthoyl-d(FFFVL)-nh2 [PPI-650]
Table IX, 5 μM test compound
  ΔLag 5 μM: 2.2

## 2-Formylphenoxyacetyl-d(LVFFA)-nh2 [PPI-554]
Table IX, 5 μM test compound
  ΔLag 5 μM: 2.6

## 3,4-Dihydroxycinnamoyl-d(LVFF)-nh2 [PPI-491]
[1]
  ΔLag 5 μM: 3.0

## 1-Adamantanecarbonyl-d(LVFF)-nh2 [PPI-492]
[2]
  ΔLag 5 μM: 1.1

## Hydrocinnamoyl-d(FFVL)-oh [PPI-619]
Table IX, 5 μM test compound
  ΔLag 5 μM: 2.0

## 4-Hydroxyphenylacetyl-d(LFFVL)-nh2 [PPI-649]
Table IX, 5 μM test compound
  ΔLag 5 μM: 5.1

## h-d(VF)-PEA [PPI-493]
Table II, second series, different stock of Aβ1-40, 2 μM test compound
  ΔLag 2 μM: 1.0
Table II, second series, different stock of Aβ1-40, 3 μM test compound
  ΔLag 3 μM: 1.0
Table II, second series, different stock of Aβ1-40, 4 μM test compound
  ΔLag 4 μM: 1.0
Table II, second series, different stock of Aβ1-40, 5 μM test compound
  ΔLag 5 μM: 1.9

## 3,4-Dihydroxycinnamoyl-d(LFFVL)-nh2 [PPI-593]
Table IX, 5 μM test compound
  ΔLag 5 μM: 2.0

## 5-Hydantoinacetyl-d(LVFFA)-nh2 [PPI-539]
Table IX, 5 μM test compound
  ΔLag 5 μM: 2.4

## 3,4-Dihydroxycinnamoyl-d(AFFVL)-nh2 [PPI-569]
Table IX, 5 μM test compound
  ΔLag 5 μM: 2.6

## 2-Hydroxycinnamoyl-d(LVFFA)-nh2 [PPI-536]
Table IX, 5 μM test compound
  ΔLag 5 μM: 1.4

## CC(C)C[C@@H](NC(=O)[C@H](NC(=O)[C@@H](Cc1ccccc1)NC(=O)[C@@H](Cc1ccccc1)NC(=O)[C@@H](C)NC(=O)Cc1ccncc1)C(C)C)C(N)=O [PPI-741, 4-Pyridylacetyl-d(AFFVL)-nh2] ({Acetyl(4-pyridyl)}-[dA][dF][dF][dV][dL]-NH2)
2.5 μM test compound
  ΔLag: 2.0

## h-d(FFFVL)-nh2 [PPI-579]
Table VI, 0.5 μM test compound
  ΔLag 0.5 μM: 1.8
Table VI, 5.0 μM test compound
  ΔLag 5.0 μM: >7.5
Table VI, […] test compound
  ΔLag […]: 6.3
Table X, 5 μM test compound
  ΔLag 5 μM: >6

## Ursodeoxycholyl-LVFFA-oh [PPI-522]
Table III, modifying groups derived from bile acids, 5 μM test compound
  ΔLag 5 μM: >2.3
Table IX, 5 μM test compound
  ΔLag 5 μM: 1.2

## Butanoyl-d(LVFFA)-nh2 [PPI-525]
[2]
  ΔLag 5 μM: 1.0

## H-d(FFVL)-nh2 [PPI-602]
Table X, 5 μM test compound
  ΔLag 5 μM: 1.6

## CC(C)C[C@@H](NC(=O)[C@H](NC(=O)[C@@H](Cc1ccccc1)NC(=O)[C@@H](Cc1ccccc1)NC(=O)[C@@H](C)NC(=O)c1ccncc1)C(C)C)C(N)=O [PPI-732, Isonicotinoyl-d(AFFVL)-nh2] (Isonicotinoyl-[dA][dF][dF][dV][dL]-NH2)
5 μM test compound
  ΔLag: <2

## CC(C)C[C@@H](N)C(=O)N[C@@H](C(=O)N[C@H](Cc1ccccc1)C(=O)N[C@H](Cc1ccccc1)C(=O)N[C@@H](C(N)=O)C(C)C)C(C)C [PPI-657, H-d(LVFFV)-nh2] (H-[dL][dV][dF][dF][dV]-NH2)
0.5 μM test compound
  ΔLag: 1.7
5 μM test compound
  ΔLag: >10

## h-d(VF)-PEA [PPI-497]
[2]
  ΔLag 5 μM: 1.0

## Dihphenylacetyl-d(LVFF)-nh2 [PPI-484]
[2]
  ΔLag 5 μM: 1.3
